Activity calls are given as the source filed them. The rule behind the calls is not given here.
Test system: CCRIS mutagenicity, Ames/micronucleus/aberration tests
Test: CCRIS mutagenicity studies

BrC(Br)Br
mutagenic call (End Point: IN VITRO CHROMOSOMAL ABERRATIONS, Test System: CHO CELLS, Metabolic Activation: NONE): inactive; negative
mutagenic call (End Point: IN VITRO CHROMOSOMAL ABERRATIONS, Test System: CHO CELLS, Metabolic Activation: RAT, LIVER, S-9, AROCLOR 1254): inactive; negative
mutagenic call (End Point: IN VIVO MICRONUCLEUS, Test System: BONE MARROW POLYCHROMATIC ERYTHROCYTES, Species: MOUSE, Strain/Sex: DDY/MALE, Route: IP): inactive; negative
mutagenic call (Test System: AMES SALMONELLA TYPHIMURIUM, Strain/Indicator: RSJ100, Metabolic Activation: NONE, Method: PREINCUBATION): active; positive
mutagenic call (Test System: AMES SALMONELLA TYPHIMURIUM, Strain/Indicator: RSJ100, Metabolic Activation: NONE, Method: STANDARD PLATE): active; positive
mutagenic call (Test System: AMES SALMONELLA TYPHIMURIUM, Strain/Indicator: RSJ100, Metabolic Activation: RAT LIVER S-9, Method: PREINCUBATION): inactive; negative
mutagenic call (Test System: AMES SALMONELLA TYPHIMURIUM, Strain/Indicator: TA97, Metabolic Activation: HAMSTER, LIVER, S-9 (10% OR 30%), AROCLOR 1254, Method: PREINCUBATION): inactive; negative
mutagenic call (Test System: AMES SALMONELLA TYPHIMURIUM, Strain/Indicator: TA97, Metabolic Activation: NONE, Method: PREINCUBATION): inactive; negative
mutagenic call (Test System: AMES SALMONELLA TYPHIMURIUM, Strain/Indicator: TA97, Metabolic Activation: RAT, LIVER, S-9 (10% OR 30%), AROCLOR 1254, Method: PREINCUBATION): inactive; negative
mutagenic call (Test System: AMES SALMONELLA TYPHIMURIUM, Strain/Indicator: TA98, Metabolic Activation: HAMSTER, LIVER, S-9 (5% OR 10%), AROCLOR 1254, Method: PREINCUBATION): inactive; negative
mutagenic call (Test System: AMES SALMONELLA TYPHIMURIUM, Strain/Indicator: TA98, Metabolic Activation: HAMSTER, LIVER, S-9, AROCLOR 1254, Method: PREINCUBATION): inactive; negative
mutagenic call (Test System: AMES SALMONELLA TYPHIMURIUM, Strain/Indicator: TA98, Metabolic Activation: NONE, Method: STANDARD PLATE): inactive; negative
mutagenic call (Test System: AMES SALMONELLA TYPHIMURIUM, Strain/Indicator: TA98, Metabolic Activation: RAT LIVER S-9, Method: PREINCUBATION): active; positive
mutagenic call (Test System: AMES SALMONELLA TYPHIMURIUM, Strain/Indicator: TA98, Metabolic Activation: RAT, LIVER, S-9 (10% OR 30%), AROCLOR 1254, Method: PREINCUBATION): inactive; negative
mutagenic call (Test System: AMES SALMONELLA TYPHIMURIUM, Strain/Indicator: TA98, Metabolic Activation: RAT, LIVER, S-9, AROCLOR 1254, Method: PREINCUBATION): inactive; negative
mutagenic call (Test System: AMES SALMONELLA TYPHIMURIUM, Strain/Indicator: TA98, Metabolic Activation: RAT, LIVER, S-9, AROCLOR 1254, Method: STANDARD PLATE): inactive; negative
mutagenic call (Test System: AMES SALMONELLA TYPHIMURIUM, Strain/Indicator: TA100, Metabolic Activation: HAMSTER, LIVER, S-9 (10% OR 30%), AROCLOR 1254, Method: PREINCUBATION): inactive; negative
mutagenic call (Test System: AMES SALMONELLA TYPHIMURIUM, Strain/Indicator: TA100, Metabolic Activation: HAMSTER, LIVER, S-9, AROCLOR 1254, Method: PREINCUBATION): inactive; negative
mutagenic call (Test System: AMES SALMONELLA TYPHIMURIUM, Strain/Indicator: TA100, Metabolic Activation: NONE, Method: DESICCATOR): active; positive
mutagenic call (Test System: AMES SALMONELLA TYPHIMURIUM, Strain/Indicator: TA100, Metabolic Activation: NONE, Method: FLUCTUATION TEST): active; positive
mutagenic call (Test System: AMES SALMONELLA TYPHIMURIUM, Strain/Indicator: TA100, Metabolic Activation: NONE, Method: STANDARD PLATE): inactive; negative
mutagenic call (Test System: AMES SALMONELLA TYPHIMURIUM, Strain/Indicator: TA100, Metabolic Activation: RAT LIVER S-9, Method: PREINCUBATION): inactive; negative
mutagenic call (Test System: AMES SALMONELLA TYPHIMURIUM, Strain/Indicator: TA100, Metabolic Activation: RAT, LIVER, S-9 (10% OR 30%), AROCLOR 1254, Method: PREINCUBATION): inactive; negative
mutagenic call (Test System: AMES SALMONELLA TYPHIMURIUM, Strain/Indicator: TA100, Metabolic Activation: RAT, LIVER, S-9, AROCLOR 1254, Method: FLUCTUATION TEST): inactive; negative
mutagenic call (Test System: AMES SALMONELLA TYPHIMURIUM, Strain/Indicator: TA100, Metabolic Activation: RAT, LIVER, S-9, AROCLOR 1254, Method: PREINCUBATION): inactive; negative
mutagenic call (Test System: AMES SALMONELLA TYPHIMURIUM, Strain/Indicator: TA100, Metabolic Activation: RAT, LIVER, S-9, AROCLOR 1254, Method: STANDARD PLATE): inactive; negative
mutagenic call (Test System: AMES SALMONELLA TYPHIMURIUM, Strain/Indicator: TA1535, Metabolic Activation: HAMSTER, LIVER, S-9 (10% OR 30%), AROCLOR 1254, Method: PREINCUBATION): inactive; negative
mutagenic call (Test System: AMES SALMONELLA TYPHIMURIUM, Strain/Indicator: TA1535, Metabolic Activation: HAMSTER, LIVER, S-9, AROCLOR 1254, Method: PREINCUBATION): inactive; negative
mutagenic call (Test System: AMES SALMONELLA TYPHIMURIUM, Strain/Indicator: TA1535, Metabolic Activation: NONE, Method: DESICCATOR): active; positive
mutagenic call (Test System: AMES SALMONELLA TYPHIMURIUM, Strain/Indicator: TA1535, Metabolic Activation: NONE, Method: PREINCUBATION): inactive; negative
mutagenic call (Test System: AMES SALMONELLA TYPHIMURIUM, Strain/Indicator: TA1535, Metabolic Activation: NONE, Method: STANDARD PLATE): inactive; negative
mutagenic call (Test System: AMES SALMONELLA TYPHIMURIUM, Strain/Indicator: TA1535, Metabolic Activation: RAT, LIVER, S-9 (10% OR 30%), AROCLOR 1254, Method: PREINCUBATION): inactive; negative
mutagenic call (Test System: AMES SALMONELLA TYPHIMURIUM, Strain/Indicator: TA1535, Metabolic Activation: RAT, LIVER, S-9, AROCLOR 1254, Method: PREINCUBATION): inactive; negative
mutagenic call (Test System: AMES SALMONELLA TYPHIMURIUM, Strain/Indicator: TA1535, Metabolic Activation: RAT, LIVER, S-9, AROCLOR 1254, Method: STANDARD PLATE): inactive; negative
mutagenic call (Test System: AMES SALMONELLA TYPHIMURIUM, Strain/Indicator: TA1537, Metabolic Activation: HAMSTER, LIVER, S-9 (10% OR 30%), AROCLOR 1254, Method: PREINCUBATION): inactive; negative
mutagenic call (Test System: AMES SALMONELLA TYPHIMURIUM, Strain/Indicator: TA1537, Metabolic Activation: HAMSTER, LIVER, S-9, AROCLOR 1254, Method: PREINCUBATION): inactive; negative
mutagenic call (Test System: AMES SALMONELLA TYPHIMURIUM, Strain/Indicator: TA1537, Metabolic Activation: NONE, Method: PREINCUBATION): inactive; negative
mutagenic call (Test System: AMES SALMONELLA TYPHIMURIUM, Strain/Indicator: TA1537, Metabolic Activation: NONE, Method: STANDARD PLATE): inactive; negative
mutagenic call (Test System: AMES SALMONELLA TYPHIMURIUM, Strain/Indicator: TA1537, Metabolic Activation: RAT, LIVER, S-9 (10% OR 30%), AROCLOR 1254, Method: PREINCUBATION): inactive; negative
mutagenic call (Test System: AMES SALMONELLA TYPHIMURIUM, Strain/Indicator: TA1537, Metabolic Activation: RAT, LIVER, S-9, AROCLOR 1254, Method: PREINCUBATION): inactive; negative
mutagenic call (Test System: AMES SALMONELLA TYPHIMURIUM, Strain/Indicator: TA1537, Metabolic Activation: RAT, LIVER, S-9, AROCLOR 1254, Method: STANDARD PLATE): inactive; negative
mutagenic call (Test System: MOUSE LYMPHOMA, Strain/Indicator: L5178Y (TK+/TK-), Metabolic Activation: NONE, Method: SUSPENSION/PLATE): active; positive
mutagenic call (Test System: MOUSE LYMPHOMA, Strain/Indicator: L5178Y (TK+/TK-), Metabolic Activation: RAT, LIVER, S-9, AROCLOR 1254, Method: SUSPENSION/PLATE): active; positive
mutagenic call (Test System: UDS RAT HEPATOCYTES, Strain/Indicator: THY INCORP, Metabolic Activation: NONE, Method: AUTORADIOGRAPHY): inactive; negative
